# Experimental data from patent US5807900A, “Method for identifying compounds having increased activity for the repair of skin photodamage” (priority 1995, dated 1998).
# Like-named read-outs stand apart in the source and are kept apart here.
# How the values were obtained:
# photodamaged skin = assay: Measurement of photodamage repair in the hairless mouse model; assay type: in vivo, Hairless mice (female, HRS/J strain); conditions: for Photodamage repair activity (scale 0 to 4): UVB-irradiated, topical in acetone three times per week, three doses
# Source text: The ability of a composition of the invention to induce repair of photodamaged skin may be determined by any conventional means. One conventional method of determining the ability of a topical composition to repair photodamaged skin is the hairless mouse model described by Kligman et al., supra. […] In this model, repair is defined by the appearance of a zone of normalized dermis extending from the epidermis down to the layer of compressed elastin. The extent of repair is reflected by the width of this zone. […] The average width of the repair zone is then calculated by dividing the area by the length of the histological section that was measured.
# The width of the repair zone is […] an activity value of 4.
# Measurement of Photodamage Repair
# Hairless mice (female, HRS/J strain, Jackson Labs, 5-7 weeks old at the start of the experiments) were housed in yellow light and irradiated three times per week with a bank of 8 Westinghouse Sunlamps (FS120) placed about 20 cm above the animals. Daily doses were 0.03 J/cm^2 for two weeks, 0.06 J/cm2 for two weeks and 0.08 J/cm2 thereafter. The radiation dose is controlled by an International Light Model IL844A Phototherapy Exposure Control and a model SEE240 detector.
# To effect repair of the dermal damage, the UVB irradiation was discontinued and the animals were divided into groups of approximately eight and treated three times per week with various concentrations of the retinoids dissolved in acetone. Stock solutions are made up freshly every week in subdued light at concentrations such that the dose is delivered in 100 μl volume and applied topically with a plastic pipette to an area of about 10 cm^2 on the back of the animal. All dosing was done under yellow light. A control group treated with acetone alone was included.
# Two-cm strips of dorsal skin were taken longitudinally down the center of the irradiated (and treated) area. Elastin fibers were stained with Luna's aldehyde fuchsin and collagen by Van Gieson. In this model, repair is defined by the appearance of a normalized dermis extending from the epidermis down to the layer of compressed elastin. The extent of repair is reflected by the width of this zone. […] Twenty-four fields each of which, at 100X magnification, represents a section of tissue 0.57 mm long, are examined and the area calculated. The results are reported as the average area per field in mm^2. Thus the average width of the repair zone can be obtained by dividing this average area by 0.57 mm. […] All microscopic fields are included in the calculations of average area (or width). Data are analyzed by Student's t-test.
# Compounds are tested at three doses and an approximate ED50 calculated.
# RAR-β = RAR-β transactivation assay (SeAP reporter, COS cells); assay type: cell-based, human; conditions: for Transactivation % max (β): relative to all-trans-retinoic acid at same concentration (1,000 nM or 10,000 nM)
# Method: (§1) Retinoid Receptor Transactivation Assays
# (§2) Transactivation assays were performed essentially as described in Apfel et al., supra. For the RAR transcription activation test system, the secreted alkaline phosphatase gene (SeAP) is used as reporter. To have a screening system specific for the transfected receptor, chimeric receptors are used. These contain an estrogen receptor DNA binding domain and therefore recognize the estrogen response element (ERE) which no endogenous RAR's in mammalian cells will recognize.
# (§3) The transactivation assay system has been adapted to 96-well plates and most steps are done by a robot. Briefly, on day 1 confluent COS cells are subcultured at an equivalent density onto 96-well plates in DMEM+10% charcoal stripped serum. On day 2 DNA is prepared for transfection by mixing the following: 10 μg vit-TK-SeAP reporter plasmid, 2 μg RAR expression plasmid, 2 μg transfection control plasmid and 30 μl Transfectam (lipopolyamine transfection reagent). Cells are washed twice with serum-free medium and DNA/transfectam mix added. After 1 hour medium is removed and replaced with growth medium containing test retinoids. On day 4 or 5 the culture supernatant is removed, heated to 65° for 5 min to inactivate nonspecific phosphatases, and diluted 1:10 with water. 20 μl samples are added to 100 μl of phosphatase substrate in buffer. After 1 hour at 37° the luminescence is measured in a 96-well luminometer.
# (§4) 100 μl of β-galactosidase substrate is added to the adherent cells. Plates are incubated for 1 hour at 37° and the supernatants transferred to separate plates for quantitation of β-galactosidase activity by luminescence measurement. Transactivation results are expressed as the ratio of SeAP/β-galactosidase activity for each well to correct for well-to-well variation in transfection efficiency.
# (§5) Data are means of values obtained from two or more individual experiments, rounded off to two significant figures. […] The maximum transactivation activity is determined from the plot where increasing dosage provides little or no additional activity, i.e., where the plot begins to level off. For active retinoids the highest concentration tested is 1000 nM.
# human RAR-γ [1] = assay: RAR-γ transactivation assay (SeAP reporter, COS cells); assay type: cell-based; conditions: for Transactivation % max (γ): relative to all-trans-retinoic acid at same concentration (1,000 nM or 10,000 nM)
# Method: as §1, §2, §3, §4, §5
# human RAR-α [2] = assay: RAR-α transactivation assay (SeAP reporter, COS cells); assay type: cell-based; conditions: for Transactivation % max (α): relative to all-trans-retinoic acid at same concentration (1,000 nM or 10,000 nM)
# Method: as §1, §2, §3, §4, §5
# photoaged skin = conditions: human, topical, literature studies; cited from earlier work
# human RAR-γ [3] = assay: Binding assay for human RAR-γ (displacement of 3H-retinoic acid); conditions: 3H-retinoic acid displacement, mean of two or more experiments
# Method: (§6) Binding Assay for Human RAR-α, RAR-β and RAR-γ
# (§7) Binding assays were performed essentially as described in Apfel et al., supra. […] Extracts containing the receptors were used in a competitive binding assay which depends upon the ability of increasing concentrations of a retinoid to displace ^3 H-retinoic acid. In a typical assay, 0.2 to 0.4 picomoles of receptors were incubated in 0.2 ml of 50 mM Tris HCl, pH 7.4, 50 mM NaCl, 2 mM EDTA (binding buffer) containing 0.5% gelatin, 1% DMSO, 2-5 nM ^3 H-retinoic acid and various concentrations of unlabelled retinoids. After 3-5 hours at 22° C., 0.15 ml of chilled charcoal/dextran suspension (5% Norit A/0.5% dextran T-40 in binding buffer) were added for 15 min at 4° C. The tubes were centrifuged at 12,000 x g for 15 minutes and the supernates counted. Binding parameters were calculated from competition curves using the Ligand program.
# (§8) Data are means of values obtained from two or more individual experiments, rounded off to two significant figures. […] When binding inhibition at 10,000 nM is less than 50%, >10,000 is indicated.
# human RAR-α [4] = target: T1, human RAR-α (Homo sapiens, UniProt P10276); assay: Binding assay for human RAR-α (displacement of 3H-retinoic acid); conditions: 3H-retinoic acid displacement, mean of two or more experiments
# T1 sequence (P10276 201-462 limits assumed): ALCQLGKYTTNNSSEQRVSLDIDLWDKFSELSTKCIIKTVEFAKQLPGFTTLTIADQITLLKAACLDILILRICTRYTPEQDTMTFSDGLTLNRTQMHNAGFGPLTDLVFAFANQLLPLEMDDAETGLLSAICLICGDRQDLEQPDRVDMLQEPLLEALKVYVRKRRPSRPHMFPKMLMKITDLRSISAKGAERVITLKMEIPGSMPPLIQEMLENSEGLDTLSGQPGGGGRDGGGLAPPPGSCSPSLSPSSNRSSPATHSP
# human RAR-β = target: T2, human RAR-β (Homo sapiens, UniProt P10826); assay: Binding assay for human RAR-β (displacement of 3H-retinoic acid); conditions: 3H-retinoic acid displacement, mean of two or more experiments
# T2 sequence (P10826 201-455 limits assumed): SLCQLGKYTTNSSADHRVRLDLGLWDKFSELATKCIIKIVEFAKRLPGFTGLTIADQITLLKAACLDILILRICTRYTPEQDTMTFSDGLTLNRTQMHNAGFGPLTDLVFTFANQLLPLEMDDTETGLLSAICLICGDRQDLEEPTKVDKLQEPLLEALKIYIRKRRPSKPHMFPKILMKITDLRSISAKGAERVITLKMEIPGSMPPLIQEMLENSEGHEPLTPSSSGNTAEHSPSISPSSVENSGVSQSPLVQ
# Method: as §6, §7, §8
# [5] = COS cells, 50% of the compound's own maximum, set to highest concentration tested (usually 1000 nM) if no maximum reached, read-out: Transactivation ED50 (β)
# [6] = RAR-γ, COS cells, 50% of the compound's own maximum, set to highest concentration tested (usually 1000 nM) if no maximum reached, read-out: Transactivation ED50 (γ)
# [7] = COS cells, 50% of the compound's own maximum, set to highest concentration tested (usually 1000 nM) if no maximum reached, read-out: Transactivation ED50 (α)
EC50 (RAR-β; [5]),IC50 (human RAR-γ [3]),EC50 (human RAR-γ [1]; [6]),EC50 (human RAR-α [2]; [7]),IC50 (human RAR-α [4]),IC50 (human RAR-β),Structure (SMILES),Photodamage repair activity (scale 0 to 4) (photodamaged skin),"ED50 for photodamage repair (photodamaged skin; μg of test compound applied to 10 cm^2 of skin area, standard retinoid)","EC50 (RAR-β; read-out: Transactivation ED50 (β), COS cells, 50% of the compound's own maximum, set to highest concentration tested (usually 1000 nM) if no maximum reached)",Transactivation % max (β) (RAR-β),EC50 (human RAR-γ [1]),Transactivation % max (γ) (human RAR-γ [1]; RAR-γ),"EC50 (human RAR-α [2]; read-out: Transactivation ED50 (α), COS cells, 50% of the compound's own maximum, set to highest concentration tested (usually 1000 nM) if no maximum reached)",Transactivation % max (α) (human RAR-α [2]),Clinical improvement of photodamaged/photoaged skin (photoaged skin)
,,,,,,"CC1=C(/C=C/C(C)=C/C=C/C(C)=C\C(=O)O)C(C)(C)CCC1 [B, 13-cis retinoic acid, reference compound]",2 (an ED50 of 10 μg),10 µg,[…],[…],[…],[…],[…],[…],efficacy of isotretinoin in photodamage has been demonstrated
0.15 µM,0.67 µM,0.029 µM,1 µM,> 10 µM,7.6 µM,CCCCCOc1cc2c(cc1/C=C/c1ccc(C(=O)O)cc1)C(C)(C)CCC2(C)C [P],4,,,60%,,90%,,16%,
0.15 µM,2 µM,0.029 µM,1 µM,> 10 µM,9.3 µM,CCCCCOc1cc2c(cc1/C=C/C=C/C(C)=C/C(=O)O)C(C)(C)CCC2(C)C [Q],4,,,81%,,96%,,45%,
